Results as given in ChEMBL document CHEMBL4130418, “From dual binding site acetylcholinesterase inhibitors to allosteric modulators: A new avenue for disease-modifying drugs in Alzheimer's disease” (Eur J Med Chem, 2017).
Activity calls are given as the source filed them. The calls are words filed in the database; no cut-off is given here.

Legend:
Acetylcholinesterase [1] = biological target: T1, Acetylcholinesterase (Homo sapiens, UniProt P22303); experiment: Inhibition of human AChE using acetylthiocholine iodide as substrate preincubated for 5 mins followed by substrate addition measured over 5 mins by UV-Vis spectrophotometric analysis
Cholinesterase = Cholinesterase (Homo sapiens, UniProt P06276); experiment: Inhibition of human serum BuChE using butyrylthiocholine iodide as substrate preincubated for 5 mins followed by substrate addition measured over 5 mins by UV-Vis spectrophotometric analysis
[2] = biological target: Acetylcholinesterase (Electrophorus electricus) (UniProt O42275); experiment: Binding affinity to electric eel AChE in presence of 80 to 1216 uM donepezil by STD NMR spectroscopy method
Acetylcholinesterase [3] = biological target: T1, Acetylcholinesterase; experiment: Mixed-type inhibition of human AChE using acetylthiocholine iodide as substrate preincubated for 5 mins followed by substrate addition measured over 5 mins by Lineweaver-Burk plot analysis
Acetylcholinesterase [4] = biological target: T1, Acetylcholinesterase; experiment: Noncompetitive inhibition of human AChE using acetylthiocholine iodide as substrate preincubated for 5 mins followed by substrate addition measured over 5 mins by Lineweaver-Burk plot analysis
SH-SY5Y [5] = experiment: Cytoprotection against amyloid beta (1 to 42) peptide induced cell death in human SH-SY5Y cells assessed as increase in clonogenic survival after 24 hrs by Giemsa staining-based inverted microscopic analysis; type: functional; conditions: read-out: MEC
SH-SY5Y [6] = experiment: Cytotoxicity against human SH-SY5Y cells assessed as reduction in cell viability at 0.056 uM after 24 hrs by XTT assay; type: cell-based
[7] = biological target: Acetylcholinesterase (Electrophorus electricus) (UniProt O42275); experiment: Binding affinity to electric eel AChE in presence fixed dose of donepezil by STD NMR spectroscopy method
SH-SY5Y [8] = experiment: Induction of neuronal differentiation in human SH-SY5Y cells assessed as decrease in cell proliferation at 0.014 uM followed by culture medium replacement for every three days for 10 days by inverted-phase microscopic analysis; type: functional, cell-based
HepG2 [9] = experiment: Cytotoxicity against human HepG2 cells assessed as reduction in cell viability at 0.0035 to 0.224 uM after 24 hrs by XTT assay; type: cell-based; conditions: hepg2, 24 h
SH-SY5Y [10] = experiment: Induction of neuronal differentiation in human SH-SY5Y cells assessed as extensive neurites formation at 0.014 uM followed by culture medium replacement for every three days for 10 days by inverted-phase microscopic analysis; type: functional, cell-based
SH-SY5Y [11] = experiment: Induction of neuronal differentiation in human SH-SY5Y cells assessed as neurite bearing cells at 0.014 uM followed by culture medium replacement for every three days for 10 days by inverted-phase microscopic analysis relative to control; type: functional
SH-SY5Y [12] = experiment: Cytotoxicity against human SH-SY5Y cells assessed as reduction in cell viability at 2.84 uM after 24 hrs by XTT assay; type: cell-based
SH-SY5Y [13] = experiment: Induction of neuronal differentiation in human SH-SY5Y cells assessed as decrease in cell proliferation at 0.13 uM followed by culture medium replacement for every three days for 10 days by inverted-phase microscopic analysis; type: functional, cell-based
HepG2 [14] = experiment: Cytotoxicity against human HepG2 cells assessed as reduction in cell viability at 2.84 to 5.68 uM after 24 hrs by XTT assay; type: cell-based; conditions: hepg2, 24 h
SH-SY5Y [15] = experiment: Induction of neuronal differentiation in human SH-SY5Y cells assessed as extensive neurites formation at 0.13 uM followed by culture medium replacement for every three days for 10 days by inverted-phase microscopic analysis; type: functional, cell-based
SH-SY5Y [16] = experiment: Induction of neuronal differentiation in human SH-SY5Y cells assessed as neurite bearing cells at 0.13 uM followed by culture medium replacement for every three days for 10 days by inverted-phase microscopic analysis relative to control; type: functional

T1 sequence (P22303 whole entry): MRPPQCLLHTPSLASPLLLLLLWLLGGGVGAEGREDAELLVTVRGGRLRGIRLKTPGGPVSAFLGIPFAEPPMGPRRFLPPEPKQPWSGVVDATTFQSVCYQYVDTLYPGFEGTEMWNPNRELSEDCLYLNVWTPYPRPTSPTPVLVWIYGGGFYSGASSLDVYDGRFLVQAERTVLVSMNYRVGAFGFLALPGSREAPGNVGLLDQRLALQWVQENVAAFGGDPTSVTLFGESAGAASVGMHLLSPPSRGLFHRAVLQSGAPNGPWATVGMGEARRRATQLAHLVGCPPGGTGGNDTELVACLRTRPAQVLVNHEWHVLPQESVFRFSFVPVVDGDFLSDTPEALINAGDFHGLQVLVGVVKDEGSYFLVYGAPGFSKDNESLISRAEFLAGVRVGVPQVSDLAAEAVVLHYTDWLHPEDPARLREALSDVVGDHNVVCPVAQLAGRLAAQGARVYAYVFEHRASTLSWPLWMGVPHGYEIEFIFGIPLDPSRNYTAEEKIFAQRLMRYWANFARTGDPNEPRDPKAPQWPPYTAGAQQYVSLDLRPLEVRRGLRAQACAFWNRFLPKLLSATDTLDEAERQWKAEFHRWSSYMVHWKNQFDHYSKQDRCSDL
Chain of Acetylcholinesterase (Electrophorus electricus) (O42275 24-633 limits assumed): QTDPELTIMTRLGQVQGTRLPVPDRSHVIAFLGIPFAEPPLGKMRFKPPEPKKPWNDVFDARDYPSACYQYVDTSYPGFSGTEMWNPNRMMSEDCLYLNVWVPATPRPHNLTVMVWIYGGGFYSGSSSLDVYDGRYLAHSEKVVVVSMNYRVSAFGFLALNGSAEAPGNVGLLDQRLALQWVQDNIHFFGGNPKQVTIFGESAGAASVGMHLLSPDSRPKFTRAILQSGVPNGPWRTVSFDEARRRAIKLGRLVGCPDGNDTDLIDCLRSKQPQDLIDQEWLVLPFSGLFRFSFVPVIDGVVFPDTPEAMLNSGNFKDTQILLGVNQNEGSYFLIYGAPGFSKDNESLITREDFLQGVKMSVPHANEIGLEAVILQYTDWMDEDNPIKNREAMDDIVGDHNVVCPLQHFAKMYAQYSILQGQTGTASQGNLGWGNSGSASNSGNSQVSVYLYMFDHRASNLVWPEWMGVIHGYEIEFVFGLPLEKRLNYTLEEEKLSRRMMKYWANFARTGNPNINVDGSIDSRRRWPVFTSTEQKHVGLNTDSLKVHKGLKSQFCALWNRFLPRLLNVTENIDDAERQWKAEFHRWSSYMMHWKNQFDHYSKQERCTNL
Chain of Cholinesterase (P06276 whole entry): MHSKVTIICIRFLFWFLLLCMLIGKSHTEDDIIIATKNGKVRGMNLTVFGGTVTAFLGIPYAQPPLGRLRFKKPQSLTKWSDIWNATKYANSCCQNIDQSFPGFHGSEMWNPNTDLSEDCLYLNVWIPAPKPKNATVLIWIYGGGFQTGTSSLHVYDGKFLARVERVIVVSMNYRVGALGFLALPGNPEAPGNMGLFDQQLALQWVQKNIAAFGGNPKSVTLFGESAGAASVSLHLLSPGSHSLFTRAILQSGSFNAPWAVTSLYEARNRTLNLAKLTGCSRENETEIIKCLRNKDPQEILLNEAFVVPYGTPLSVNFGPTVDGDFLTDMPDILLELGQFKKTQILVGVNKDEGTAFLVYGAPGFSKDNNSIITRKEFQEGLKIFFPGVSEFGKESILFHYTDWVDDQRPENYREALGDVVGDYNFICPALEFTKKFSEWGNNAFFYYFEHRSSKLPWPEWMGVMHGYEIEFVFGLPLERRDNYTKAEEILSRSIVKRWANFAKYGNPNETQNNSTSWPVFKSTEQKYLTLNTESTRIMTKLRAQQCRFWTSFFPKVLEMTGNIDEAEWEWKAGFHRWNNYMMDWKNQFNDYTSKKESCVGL

In the case of `COc1cc2c(cc1OC)C(=O)/C(=C/C1CCN(Cc3cc(N=[N+]=[N-])c4ccccc4n3)CC1)C2`, the IC50 (Acetylcholinesterase [1]) is reported as 4.88 µM, the IC50 (Cholinesterase) is reported as over 10 µM and the Activity [2] is reported as “inactive”. For the same compound, the inhibition (Acetylcholinesterase [3]) was “Active”.

Compound `OCC1CCN(Cc2cc(Cl)c3ccccc3n2)CC1` has an IC50 (Acetylcholinesterase [1]) of over 10 µM and an IC50 (Cholinesterase) of over 10 µM.

For `COc1cc2c(cc1OC)C(=O)/C(=C/C1CCN(Cc3cc(N)c4ccccc4n3)CC1)C2`, the inhibition (Acetylcholinesterase [4]) was “Active”, the minimal effective concentration (SH-SY5Y [5]) was 0.0035 µM and the Activity (SH-SY5Y [6]) was “Toxic”. For the same compound, the Activity [7] was “Active”, the IC50 (Acetylcholinesterase [1]) was 0.014 µM and the IC50 (Cholinesterase) was 3.69 µM. For the same compound, the Activity (SH-SY5Y [8]) was “Active”, the Activity [2] was “Active” and the Activity (HepG2 [9]) was “Non-Toxic”. For the same compound, the Activity (SH-SY5Y [10]) was “Active” and the Activity (SH-SY5Y [11]) was 55%.

In the case of `[N-]=[N+]=Nc1cc(CN2CCC(C=O)CC2)nc2ccccc12`, the IC50 (Acetylcholinesterase [1]) is reported as over 10 µM and the IC50 (Cholinesterase) is reported as over 10 µM.

`COc1cc2c(cc1OC)C(=O)/C(=C/C1CCN(Cc3cc(Cl)c4ccccc4n3)CC1)C2` showed an IC50 (Acetylcholinesterase [1]) of over 10 µM and an IC50 (Cholinesterase) of over 10 µM.

For `COc1cc2c(cc1OC)C(=O)C(CC1CCN(Cc3cc(Cl)c4ccccc4n3)CC1)C2` (stereo not drawn), the IC50 (Acetylcholinesterase [1]) was over 10 µM and the IC50 (Cholinesterase) was 5.99 µM.

`O=CC1CCN(Cc2cc(Cl)c3ccccc3n2)CC1` was tested, and the IC50 (Acetylcholinesterase [1]) was over 10 µM and the IC50 (Cholinesterase) was over 10 µM.

With `COc1cc2c(cc1OC)C(=O)C(CC1CCN(Cc3cc(N)c4ccccc4n3)CC1)C2` (stereo not drawn) the minimal effective concentration (SH-SY5Y [5]) was 0.088 µM, the Activity (SH-SY5Y [12]) was “Toxic” and the Activity (SH-SY5Y [13]) was “Active”. For the same compound, the IC50 (Acetylcholinesterase [1]) was 0.71 µM, the IC50 (Cholinesterase) was 6.54 µM and the Activity (HepG2 [14]) was “Non-Toxic”. The Activity (SH-SY5Y [15]) was “Active” and the Activity (SH-SY5Y [16]) was 43%.
